Laboratory results from PubChem BioAssay AID1218 (NMMLSC, 2008).
Results filed as inconclusive are left out. The source made the active and inactive calls.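 The calls were made as follows: active = score of 100, meaning the red fluorescent reporter moved fully into the nucleus as with estrogen, or estrogen's effect was fully blocked; inactive = score of 0 or 50, meaning partial or no effect.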

What follows are molecules tested against Estrogen receptor beta (Homo sapiens) (UniProt Q92731) (assay: ERbeta agonist-driven PIP3 reporter relocation, confirmation, orthogonal assay for ERbeta ligand project, imaging, Cos7 cells, ERbeta-GFP, PH-RFP reporter (AID 1218)). Conditions: PIP3 translocation imaging, at 10 µM, stronger effect = higher value.
Estrogen receptor beta (Homo sapiens), sequence (Q92731 whole entry, looked up): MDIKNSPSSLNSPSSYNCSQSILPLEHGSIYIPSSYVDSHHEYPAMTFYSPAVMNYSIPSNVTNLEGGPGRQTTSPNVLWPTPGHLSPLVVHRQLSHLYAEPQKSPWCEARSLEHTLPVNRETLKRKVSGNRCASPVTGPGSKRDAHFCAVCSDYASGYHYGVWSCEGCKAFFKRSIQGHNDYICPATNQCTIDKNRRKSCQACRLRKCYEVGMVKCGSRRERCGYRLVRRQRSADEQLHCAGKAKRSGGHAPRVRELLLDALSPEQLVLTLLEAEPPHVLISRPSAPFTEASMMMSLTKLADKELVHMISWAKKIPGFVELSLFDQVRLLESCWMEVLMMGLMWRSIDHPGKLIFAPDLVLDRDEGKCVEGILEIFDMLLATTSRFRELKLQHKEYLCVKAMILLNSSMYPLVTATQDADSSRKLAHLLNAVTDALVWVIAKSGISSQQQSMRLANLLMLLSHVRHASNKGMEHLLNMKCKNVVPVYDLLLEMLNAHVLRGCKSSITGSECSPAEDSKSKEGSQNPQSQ
`Cc1cc(C)c2c(c1)[C@@H]1C=CC[C@@H]1[C@H](c1ccc(S(=O)(=O)N3CCOCC3)cc1)N2` was tested, and the response score was 100. Molecule `Cc1cc(-c2nn3c(-c4ccccc4)nnc3s2)c2ccccc2n1` has a response score of 100. For `COc1cccc(NS(=O)(=O)c2ccc3c(c2)C2C=CCC2C(c2ccc(C(=O)O)cc2)N3)c1` (stereo not drawn), the response score was 50 (inactive). `COc1ccccc1N1CCN(C(=O)c2ccc3nc(-c4ccco4)c(-c4ccco4)nc3c2)CC1` showed a response score of 100. With `O=C(O)c1cc(Cl)c2c(c1)[C@@H]1C=CC[C@@H]1[C@H](c1ccc(S(=O)(=O)N3CCOCC3)cc1)N2` the response score was 50 (inactive). `Brc1cc2c(cc1C1Nc3ccccc3C3C=CCC31)OCO2` (stereo not drawn) was tested, and the response score was 0 (inactive). For `O=C(O)c1ccc2c(c1)C1C(Cl)C(Sc3ccccc3[N+](=O)[O-])CC1C(c1cccc([N+](=O)[O-])c1)N2` (stereo not drawn), the response score was 0 (inactive). For `Nc1ncnc2c1ncn2C1CCC(CO)C(O)C1` (stereo not drawn), the response score was 50 (inactive).
